How the values were obtained:
[1] = species: Homo sapiens; test: Concentration of test compound required to inhibit 50% LTB4-induced degranulation of human PMNs; format: functional
[2] = target: Leukotriene B4 receptor 1 (Homo sapiens, UniProt Q15722); test: Binding affinity at leukotriene B4 receptor on intact human PMNs by displacement of [3H]LTB4.
[3] = species: Homo sapiens; test: Concentration of test compound required to inhibit 50% LTB4-induced calcium mobilization in intact human PMNs; format: functional
[4] = species: Mus musculus; test: Effective concentration required per ear of mouse for inhibition of neutrophil infiltration; format: functional
[5] = tested on: Mus musculus; test: Effective concentration required per ear of mouse for inhibition of edematous response; format: functional
[6] = species: Mus musculus; test: Compound was tested for its effect on mouse ear for reduction of PMN infiltration; format: functional
[7] = species: Mus musculus; test: Effective concentration required for inhibition of LTB4-induced (250 ng/mL) PMN infiltration; format: functional

Leukotriene B4 receptor 1, sequence (Q15722 whole entry): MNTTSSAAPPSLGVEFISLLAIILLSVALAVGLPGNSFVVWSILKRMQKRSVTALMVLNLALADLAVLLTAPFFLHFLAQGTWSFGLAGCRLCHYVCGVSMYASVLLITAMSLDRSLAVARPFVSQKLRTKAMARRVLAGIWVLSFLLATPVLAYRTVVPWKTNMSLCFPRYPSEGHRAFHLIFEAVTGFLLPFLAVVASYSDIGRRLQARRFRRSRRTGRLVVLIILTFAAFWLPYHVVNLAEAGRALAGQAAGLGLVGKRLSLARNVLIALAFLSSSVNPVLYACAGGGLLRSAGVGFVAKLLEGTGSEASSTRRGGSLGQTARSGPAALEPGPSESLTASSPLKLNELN

| Compound | IC50 [1] [nM] | Ki [2] [nM] | IC50 [3] [nM] | ED50 [4] [mg] | ED50 [5] [mg] | Reduction [6] [%] | ED50 [7] [mg/kg] |
| --- | --- | --- | --- | --- | --- | --- | --- |
| O=C(O)/C=C/c1nc(CSCc2cccc(C(=O)O)c2)ccc1OCCCCCCCCc1ccccc1 | 500 | 15.4 | 320 | – | – | – | – |
| COc1ccc(CCCCCCCCOc2ccc(C[S+]([O-])Cc3ccc(C(=O)O)cc3)nc2/C=C/C(=O)O)cc1 (centres undefined) | – | 161 | 7000 | – | – | – | – |
| COc1ccc(CCCCOc2ccc(CSCc3cccc(C(=O)O)c3)nc2CCC(=O)O)cc1 | 3800 | 28 | 1900 | – | – | – | – |
| COc1ccc(CCCCCCCCOc2ccc(CSCc3ccc(C(=O)O)cc3)nc2/C=C/C(=O)O)cc1 | 426 | 5.7 | 175 | – | – | – | – |
| COc1ccc(CCCCCCCCOc2ccc(CS(=O)(=O)Cc3cccc(C(=O)O)c3)nc2/C=C/C(=O)O)cc1 | 1000 | 53 | 920 | – | – | – | – |
| COc1ccc(CCCCCCCCOc2ccc(CSCc3cccc(C(=O)O)c3)nc2CCC(=O)O)cc1 | 190 | 8 | 240 | – | – | – | – |
| COc1ccc(CCCCCCCCOc2ccc(CSCc3ccccc3C(=O)O)nc2/C=C/C(=O)O)cc1 | – | 112 | 710 | – | – | – | – |
| COc1ccc(CCCCCCCCOc2ccc(CSCc3cccc(C(=O)O)c3)nc2/C=C/C(=O)O)cc1 | – | – | 131 | 0.39 | 0.58 | 92 | 7.1 |

Now from value to compound, other results behind:

| IC50 [1] [nM] | Ki [2] [nM] | IC50 [3] [nM] | Compound | ED50 [4] [mg] | ED50 [5] [mg] | Reduction [6] [%] | ED50 [7] [mg/kg] |
| --- | --- | --- | --- | --- | --- | --- | --- |
| 2600 | 240 | 3300 | COc1ccc(CCCCCCCCOc2ccc(C[S+]([O-])Cc3cccc(C(=O)O)c3)nc2/C=C/C(=O)O)cc1 (centres undefined) | – | – | – | – |
| 770 | 9.2 | 770 | COc1ccc(CCCCOc2ccc(CSCc3cccc(C(=O)O)c3)nc2/C=C/C(=O)O)cc1 | – | – | – | – |
| 1000 | – | 550 | COc1ccc(CCCCCCCCOc2ccc(CSc3cccc(C(=O)O)c3)nc2/C=C/C(=O)O)cc1 | – | – | – | – |
| 1700 | 4.8 | 500 | O=C(O)/C=C/c1nc(CSCc2cccc(C(=O)O)c2)ccc1OCCCCc1ccccc1 | – | – | – | – |
| 3200 | 167 | 3900 | COc1ccc(CCCCCCCCOc2ccc(C[S+]([O-])c3cccc(C(=O)O)c3)nc2/C=C/C(=O)O)cc1 (centres undefined) | – | – | – | – |
| – | 1.3 | – | CCCc1c(OCCCOc2ccc(C(=O)NC)c(OC)c2CC2CC2)ccc2c1O[C@H](CCC(=O)O)CC2 | – | – | – | – |

— ChEMBL document CHEMBL1127355, “(E)-3-[[[[6-(2-carboxyethenyl)-5-[[8-(4- methoxyphenyl)octyl]oxy]-2-pyridinyl]-methyl]thio]methyl]benzoic acid and related compounds: high affinity leukotriene B4 receptor antagonists” (J Med Chem, 1994)
